For orientation: IC50 means the point on the concentration scale where inhibition reaches its midpoint.

In this test the target is mitochondrial complex I (NADH:ubiquinone oxidoreductase, NQR) (Mus musculus, UniProt P03888+Q91WD5+Q9DC70). Briefly: NQR activity. The class given is biochemical.

For the molecule `O=C1Nc2ccc(Cl)cc2[C@@](C#CC2CC2)(C(F)(F)F)O1` [EFV, efavirenz], the concentration for half-maximal inhibition (IC50) was less than 10 µM.

The values are drawn from paper PMC4315936 (Redox Biology, 2015).
